Laboratory results reported in ChEMBL document CHEMBL1201862, “PubChem BioAssay data set” (2004).
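How tested: cells in 96-well plates exposed to compound for 48 hours at five concentrations. Here, GI50 denotes the concentration required for 50% inhibition of growth.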 Calls of active or inactive are those of the source. No stated cut-off is given here; in the data, active = GI50 up to about 1.1 µM and inactive = higher.

Legend:
Experiment in all cases: NCI anticancer screen, dose series, 48 h
UACC-62 = test system: UACC-62
NCI-H460 = test system: NCI-H460
NCI-H23 = test system: NCI-H23
TK-10 = test system: TK-10
M19-MEL = test system: M19-MEL
DMS-273 = test system: DMS-273
CAKI-1 = test system: CAKI-1
HOP-92 = test system: HOP-92
RXF 393 = test system: RXF 393
SK-MEL-2 = test system: SK-MEL-2
OVCAR-4 = test system: OVCAR-4
U-251 = test system: U-251
PC-3 = test system: PC-3
RPMI-8226 = test system: RPMI-8226
NCI-H226 = test system: NCI-H226
EKVX = test system: EKVX
IGROV-1 = test system: IGROV-1
SK-MEL-5 = test system: SK-MEL-5
HT-29 = test system: HT-29
A549 = test system: A549
OVCAR-8 = test system: OVCAR-8
SNB-19 = test system: SNB-19
SF-539 = test system: SF-539
COLO 205 = test system: COLO 205
Hs-578T = test system: Hs-578T
DLD-1 = test system: DLD-1
NCI-H522 = test system: NCI-H522
OVCAR-5 = test system: OVCAR-5
MOLT-4 = test system: MOLT-4
SNB-75 = test system: SNB-75
HCC 2998 = test system: HCC 2998
UACC-257 = test system: UACC-257
UO-31 = test system: UO-31
786-0 = test system: 786-0
T47D = test system: T47D
M14 = test system: M14
MDA-MB-435 = test system: MDA-MB-435
HOP-62 = test system: HOP-62
HCT-15 = test system: HCT-15
Malme-3M = test system: Malme-3M
LXFL 529 = test system: LXFL 529
SF-268 = test system: SF-268
MCF7 = test system: MCF7
DMS-114 = test system: DMS-114
SK-MEL-28 = test system: SK-MEL-28
DU-145 = test system: DU-145
MDA-N = test system: MDA-N
HCT-116 = test system: HCT-116
CCRF-CEM = test system: CCRF-CEM
KM-20L2 = test system: KM-20L2
OVCAR-3 = test system: OVCAR-3
K562 = test system: K562
SW-620 = test system: SW-620
SK-OV-3 = test system: SK-OV-3
LOX IMVI = test system: LOX IMVI
A498 = test system: A498
SNB-78 = test system: SNB-78
HOP-18 = test system: HOP-18
KM12 = test system: KM12
SF-295 = test system: SF-295
NCI/ADR-RES = test system: NCI/ADR-RES
ACHN = test system: ACHN
SN12C = test system: SN12C
HL-60 = test system: HL-60

For CC(=O)[O-].[Zn+].c1ccc(/C(=N\Nc2ccccn2)c2ccccn2)cc1, the GI50 (UACC-62) was 182 nM (active), the GI50 (NCI-H460) was 310 nM (active) and the GI50 (NCI-H23) was 15.5 nM (active). The GI50 (TK-10) was 440 nM (active), the GI50 (M19-MEL) was 394 nM (active) and the GI50 (DMS-273) was 309 nM (active). The GI50 (CAKI-1) was 119 nM (active), the GI50 (HOP-92) was 381 nM (active) and the GI50 (RXF 393) was 300 nM (active). For the same molecule, the GI50 (SK-MEL-2) was 1330 nM (inactive), the GI50 (OVCAR-4) was 603 nM (active) and the GI50 (U-251) was 281 nM (active). The GI50 (PC-3) was 30 nM (active), the GI50 (RPMI-8226) was 10 nM (active) and the GI50 (NCI-H226) was 92.9 nM (active). The GI50 (EKVX) was 6.29 nM (active), the GI50 (IGROV-1) was 37.4 nM (active) and the GI50 (SK-MEL-5) was 68.4 nM (active). For the same molecule, the GI50 (HT-29) was 10 nM (active), the GI50 (A549) was 344 nM (active) and the GI50 (OVCAR-8) was 51.9 nM (active). The GI50 (SNB-19) was 1060 nM (active), the GI50 (SF-539) was 337 nM (active) and the GI50 (COLO 205) was 0.28 nM (active). For the same molecule, the GI50 (Hs-578T) was 931 nM (active), the GI50 (DLD-1) was 23.1 nM (active) and the GI50 (NCI-H522) was 165 nM (active). The GI50 (OVCAR-5) was 25 nM (active), the GI50 (MOLT-4) was 0.773 nM (active) and the GI50 (SNB-75) was 914 nM (active). The GI50 (HCC 2998) was 710 nM (active), the GI50 (UACC-257) was 80 nM (active) and the GI50 (UO-31) was 253 nM (active). For the same molecule, the GI50 (786-0) was 137 nM (active), the GI50 (T47D) was 2.06 nM (active) and the GI50 (M14) was 81.3 nM (active). For the same molecule, the GI50 (MDA-MB-435) was 408 nM (active), the GI50 (HOP-62) was 269 nM (active) and the GI50 (HCT-15) was 13.7 nM. The GI50 (Malme-3M) was 124 nM (active), the GI50 (LXFL 529) was 42.9 nM (active) and the GI50 (SF-268) was 277 nM (active). For the same molecule, the GI50 (MCF7) was 0.912 nM (active), the GI50 (DMS-114) was 10 nM (active) and the GI50 (SK-MEL-28) was 255 nM (active). For the same molecule, the GI50 (DU-145) was 458 nM (active), the GI50 (MDA-N) was 426 nM (active) and the GI50 (HCT-116) was 5 nM (active). For the same molecule, the GI50 (CCRF-CEM) was 2.77 nM (active), the GI50 (KM-20L2) was 10 nM (active) and the GI50 (OVCAR-3) was 1.5 nM (active). The GI50 (K562) was 5.35 nM (active), the GI50 (SW-620) was 67.6 nM (active) and the GI50 (SK-OV-3) was 61.5 nM (active). The GI50 (LOX IMVI) was 264 nM (active), the GI50 (A498) was 1740 nM (inactive) and the GI50 (SNB-78) was 2380 nM (inactive). For the same molecule, the GI50 (HOP-18) was 247 nM (active), the GI50 (KM12) was 356 nM (active) and the GI50 (SF-295) was 348 nM (active). For the same molecule, the GI50 (NCI/ADR-RES) was 30.3 nM (active), the GI50 (ACHN) was 65.3 nM (active) and the GI50 (SN12C) was 42.4 nM (active). For the same molecule, the GI50 (HL-60) was 1.21 nM (active).
